Measured values from paper PMC5216056 (Nature Communications, 2017).
Like-named read-outs stand apart in the source and are kept apart here.

How the values were obtained:
MT3 (ML2) = biological target: T1, MT3 (ML2) (Mesocricetus auratus, UniProt A0ABM2YAB8); test: CEREP panel; type: binding; conditions: 10 µM
T1 construct: CEREP (contract assay)
T1 sequence (A0ABM2YAB8 1-231): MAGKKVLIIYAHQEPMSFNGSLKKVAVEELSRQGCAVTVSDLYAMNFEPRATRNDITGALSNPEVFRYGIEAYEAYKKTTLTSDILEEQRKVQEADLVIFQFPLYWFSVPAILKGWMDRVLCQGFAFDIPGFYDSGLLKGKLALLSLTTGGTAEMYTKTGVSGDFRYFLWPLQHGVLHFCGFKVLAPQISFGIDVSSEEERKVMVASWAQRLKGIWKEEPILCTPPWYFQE

[1] = test system: AEA cellular uptake in U937 cells; test: cells; type: cell-based, human; conditions: for AEA reuptake Efficacy (% inhibition) U937 cells: from dose-response; for IC50: read-out: AEA reuptake IC50 (95% CI) U937 cells
[2] = 1 μM
Rat recombinant TRPM8 = biological target: T2, Rat recombinant TRPM8 (Rattus norvegicus, UniProt Q8R455); test: TRP channel [Ca2+]i assay; type: cell-based; conditions: read-out: TRPM8 IC50 for antagonism of icilin
T2 construct: expressed in transfected cells; host or cells: HEK293 (TRPM8-HEK-293, gift from Mario van der Stelt)
T2 sequence (Q8R455 whole entry): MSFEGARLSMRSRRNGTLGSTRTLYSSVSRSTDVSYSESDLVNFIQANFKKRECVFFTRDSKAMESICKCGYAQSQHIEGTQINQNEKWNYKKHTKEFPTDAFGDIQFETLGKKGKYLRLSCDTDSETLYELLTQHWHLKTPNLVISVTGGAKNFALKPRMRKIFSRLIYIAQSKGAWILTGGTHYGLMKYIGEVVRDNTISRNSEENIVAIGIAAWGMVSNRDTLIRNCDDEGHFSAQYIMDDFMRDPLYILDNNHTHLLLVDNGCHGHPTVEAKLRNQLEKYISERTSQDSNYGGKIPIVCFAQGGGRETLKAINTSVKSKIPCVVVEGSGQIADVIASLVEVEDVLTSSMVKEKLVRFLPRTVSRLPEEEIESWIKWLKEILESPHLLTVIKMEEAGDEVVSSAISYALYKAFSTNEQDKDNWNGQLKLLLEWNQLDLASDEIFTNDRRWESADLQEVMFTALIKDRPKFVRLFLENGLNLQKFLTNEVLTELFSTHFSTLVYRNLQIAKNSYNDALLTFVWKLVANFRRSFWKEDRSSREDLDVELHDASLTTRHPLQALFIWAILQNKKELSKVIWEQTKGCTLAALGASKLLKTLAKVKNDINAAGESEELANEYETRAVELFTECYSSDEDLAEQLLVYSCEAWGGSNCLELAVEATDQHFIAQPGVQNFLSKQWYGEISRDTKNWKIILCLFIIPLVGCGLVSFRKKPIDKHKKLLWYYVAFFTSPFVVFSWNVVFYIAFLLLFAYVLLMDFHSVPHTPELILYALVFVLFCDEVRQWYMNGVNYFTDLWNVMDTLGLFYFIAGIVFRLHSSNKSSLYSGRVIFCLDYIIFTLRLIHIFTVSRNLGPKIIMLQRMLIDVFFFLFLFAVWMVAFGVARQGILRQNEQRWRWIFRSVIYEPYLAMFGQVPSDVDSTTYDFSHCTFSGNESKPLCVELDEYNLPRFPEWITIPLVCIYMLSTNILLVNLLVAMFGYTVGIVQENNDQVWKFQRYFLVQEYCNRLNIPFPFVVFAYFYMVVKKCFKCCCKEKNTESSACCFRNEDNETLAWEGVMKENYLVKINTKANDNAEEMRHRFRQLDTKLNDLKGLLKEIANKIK

[3] = logD distribution coefficient; conditions: distribution coefficient
N muscle-type (h) = biological target: T3, N muscle-type (h) (Homo sapiens, UniProt P02708+P07510+P11230+Q07001); test: CEREP panel; type: binding; conditions: 10 µM
T3 construct: CEREP (contract assay)
T3 sequence (P02708 21-457): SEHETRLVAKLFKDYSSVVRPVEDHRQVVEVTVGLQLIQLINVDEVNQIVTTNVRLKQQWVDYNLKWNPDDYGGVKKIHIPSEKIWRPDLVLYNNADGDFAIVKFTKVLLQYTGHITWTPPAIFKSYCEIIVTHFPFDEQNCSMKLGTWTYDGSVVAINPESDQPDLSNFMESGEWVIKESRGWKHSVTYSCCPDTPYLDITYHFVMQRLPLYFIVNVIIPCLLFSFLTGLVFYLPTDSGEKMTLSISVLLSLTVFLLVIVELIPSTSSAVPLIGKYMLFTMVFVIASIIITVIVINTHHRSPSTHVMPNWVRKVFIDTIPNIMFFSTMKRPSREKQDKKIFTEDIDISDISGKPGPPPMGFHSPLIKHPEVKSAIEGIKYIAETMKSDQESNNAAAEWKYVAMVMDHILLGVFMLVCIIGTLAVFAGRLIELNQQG
T3 sequence (P11230 24-501): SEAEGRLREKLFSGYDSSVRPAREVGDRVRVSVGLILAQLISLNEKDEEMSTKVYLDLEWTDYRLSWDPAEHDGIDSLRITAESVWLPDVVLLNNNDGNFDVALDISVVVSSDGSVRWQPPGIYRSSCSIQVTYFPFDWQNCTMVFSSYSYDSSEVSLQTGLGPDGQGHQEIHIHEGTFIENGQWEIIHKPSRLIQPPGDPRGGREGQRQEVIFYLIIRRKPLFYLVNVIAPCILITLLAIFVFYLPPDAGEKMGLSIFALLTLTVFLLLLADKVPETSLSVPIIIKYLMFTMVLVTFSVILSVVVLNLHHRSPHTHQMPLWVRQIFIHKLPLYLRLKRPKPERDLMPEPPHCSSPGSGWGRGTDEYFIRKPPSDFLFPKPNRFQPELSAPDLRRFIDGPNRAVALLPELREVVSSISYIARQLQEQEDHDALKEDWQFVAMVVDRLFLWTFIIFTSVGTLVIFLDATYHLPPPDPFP
T3 sequence (Q07001 22-517): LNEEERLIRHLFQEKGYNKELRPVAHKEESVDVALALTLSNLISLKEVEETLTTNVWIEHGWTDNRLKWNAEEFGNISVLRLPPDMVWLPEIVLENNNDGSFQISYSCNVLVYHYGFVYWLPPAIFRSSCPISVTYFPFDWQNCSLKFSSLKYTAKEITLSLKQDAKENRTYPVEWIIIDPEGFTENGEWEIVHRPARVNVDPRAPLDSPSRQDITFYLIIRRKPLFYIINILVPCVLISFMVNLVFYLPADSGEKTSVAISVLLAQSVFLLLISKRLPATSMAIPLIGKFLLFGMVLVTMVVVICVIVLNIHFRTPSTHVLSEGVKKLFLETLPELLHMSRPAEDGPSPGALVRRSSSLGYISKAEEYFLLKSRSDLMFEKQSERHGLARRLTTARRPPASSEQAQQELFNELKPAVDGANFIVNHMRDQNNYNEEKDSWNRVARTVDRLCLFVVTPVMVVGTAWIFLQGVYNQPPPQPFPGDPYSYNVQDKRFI
T3 sequence (P07510 23-517): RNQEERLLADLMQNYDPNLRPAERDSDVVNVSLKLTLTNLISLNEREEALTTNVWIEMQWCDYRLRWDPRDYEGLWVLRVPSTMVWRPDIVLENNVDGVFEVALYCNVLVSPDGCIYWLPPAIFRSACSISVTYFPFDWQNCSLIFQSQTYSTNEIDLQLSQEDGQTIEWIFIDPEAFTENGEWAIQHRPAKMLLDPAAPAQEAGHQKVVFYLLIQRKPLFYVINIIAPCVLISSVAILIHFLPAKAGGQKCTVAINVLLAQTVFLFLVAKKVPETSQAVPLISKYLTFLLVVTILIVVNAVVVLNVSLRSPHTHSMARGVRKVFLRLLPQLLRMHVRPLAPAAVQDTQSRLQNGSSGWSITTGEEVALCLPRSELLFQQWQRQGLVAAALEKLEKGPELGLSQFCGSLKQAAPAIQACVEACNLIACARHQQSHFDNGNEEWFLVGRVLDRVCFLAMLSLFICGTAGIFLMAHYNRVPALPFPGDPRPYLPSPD

PCP = type: binding; conditions: 10 µM
[4] = biological target: T4, norepinephrine transporter (h) (Homo sapiens, UniProt P23975); test: biochemical; type: binding; conditions: 10 µM
T4 construct: CEREP (contract assay)
T4 sequence (P23975 whole entry): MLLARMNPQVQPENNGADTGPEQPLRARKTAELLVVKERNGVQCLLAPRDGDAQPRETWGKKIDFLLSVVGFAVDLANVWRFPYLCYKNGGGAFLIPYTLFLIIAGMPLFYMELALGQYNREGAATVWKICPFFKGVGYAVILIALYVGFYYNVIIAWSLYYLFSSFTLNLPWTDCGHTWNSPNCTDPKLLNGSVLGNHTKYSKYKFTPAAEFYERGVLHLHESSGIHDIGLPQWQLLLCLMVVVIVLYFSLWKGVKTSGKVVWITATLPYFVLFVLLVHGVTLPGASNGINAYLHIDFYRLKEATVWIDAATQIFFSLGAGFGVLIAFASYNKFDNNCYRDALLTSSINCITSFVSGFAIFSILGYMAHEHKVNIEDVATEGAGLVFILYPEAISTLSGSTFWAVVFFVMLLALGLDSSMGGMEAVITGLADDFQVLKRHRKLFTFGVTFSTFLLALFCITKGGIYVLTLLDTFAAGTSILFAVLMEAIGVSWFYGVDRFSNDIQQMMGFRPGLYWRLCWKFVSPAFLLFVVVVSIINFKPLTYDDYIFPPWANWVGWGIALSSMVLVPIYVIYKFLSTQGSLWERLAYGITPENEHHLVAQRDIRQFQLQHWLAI

PPARgamma (h) = biological target: T5, PPARgamma (h) (Homo sapiens, UniProt P37231); test: CEREP panel; type: binding; conditions: 10 µM
T5 construct: CEREP (contract assay)
T5 sequence (P37231 1-505): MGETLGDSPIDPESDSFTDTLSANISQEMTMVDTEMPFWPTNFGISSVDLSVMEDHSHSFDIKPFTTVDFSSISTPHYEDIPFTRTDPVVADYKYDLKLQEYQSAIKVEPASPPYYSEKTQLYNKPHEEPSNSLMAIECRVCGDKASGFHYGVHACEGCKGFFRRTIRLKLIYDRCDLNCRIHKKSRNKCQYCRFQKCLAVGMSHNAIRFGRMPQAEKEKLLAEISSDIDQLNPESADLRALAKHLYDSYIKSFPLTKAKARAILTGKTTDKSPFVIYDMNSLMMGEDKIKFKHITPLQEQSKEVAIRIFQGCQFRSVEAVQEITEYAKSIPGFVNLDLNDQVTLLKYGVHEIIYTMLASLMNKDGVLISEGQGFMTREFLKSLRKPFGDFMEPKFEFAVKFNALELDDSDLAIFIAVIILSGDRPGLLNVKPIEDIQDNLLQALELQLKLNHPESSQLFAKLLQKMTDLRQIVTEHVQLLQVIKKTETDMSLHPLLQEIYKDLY

Human recombinant TRPV1 = biological target: T6, Human recombinant TRPV1 (Homo sapiens, UniProt Q8NER1); test: cell-based; type: cell-based; conditions: for IC50: read-out: TRPV1 IC50 for antagonism or desensitization
T6 construct: expressed in transfected cells; host or cells: HEK293 (TRPV1-HEK-293, gift from John Davis, GlaxoSmithKline)
T6 sequence (Q8NER1 whole entry): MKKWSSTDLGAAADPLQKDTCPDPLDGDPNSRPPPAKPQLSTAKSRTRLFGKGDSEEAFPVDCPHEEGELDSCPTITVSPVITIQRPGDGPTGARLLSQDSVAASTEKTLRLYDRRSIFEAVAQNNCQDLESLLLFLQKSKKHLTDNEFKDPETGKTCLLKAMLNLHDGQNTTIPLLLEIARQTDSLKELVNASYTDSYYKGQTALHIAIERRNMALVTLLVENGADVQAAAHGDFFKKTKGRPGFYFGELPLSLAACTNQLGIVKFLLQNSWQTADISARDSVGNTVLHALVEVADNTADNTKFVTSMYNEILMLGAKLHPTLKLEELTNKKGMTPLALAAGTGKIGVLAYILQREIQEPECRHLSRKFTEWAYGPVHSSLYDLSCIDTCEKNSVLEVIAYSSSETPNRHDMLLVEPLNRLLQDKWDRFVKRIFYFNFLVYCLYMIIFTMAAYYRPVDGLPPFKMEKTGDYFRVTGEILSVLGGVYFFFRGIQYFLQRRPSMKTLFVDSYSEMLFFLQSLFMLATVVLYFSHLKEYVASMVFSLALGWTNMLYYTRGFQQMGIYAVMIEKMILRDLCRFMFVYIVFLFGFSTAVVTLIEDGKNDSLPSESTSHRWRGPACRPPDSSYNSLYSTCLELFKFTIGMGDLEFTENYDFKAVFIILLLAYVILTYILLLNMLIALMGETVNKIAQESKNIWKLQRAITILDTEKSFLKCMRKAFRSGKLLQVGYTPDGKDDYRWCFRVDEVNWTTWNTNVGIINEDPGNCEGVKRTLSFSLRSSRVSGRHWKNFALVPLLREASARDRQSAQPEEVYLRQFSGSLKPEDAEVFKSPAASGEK

hGPR55 = biological target: T7, hGPR55 (Homo sapiens, UniProt Q9Y2T6); test: cell-based
T7 construct: host or cells: CHO-K1 (PathHunter hGPR55_bgal)
T7 sequence (Q9Y2T6 whole entry): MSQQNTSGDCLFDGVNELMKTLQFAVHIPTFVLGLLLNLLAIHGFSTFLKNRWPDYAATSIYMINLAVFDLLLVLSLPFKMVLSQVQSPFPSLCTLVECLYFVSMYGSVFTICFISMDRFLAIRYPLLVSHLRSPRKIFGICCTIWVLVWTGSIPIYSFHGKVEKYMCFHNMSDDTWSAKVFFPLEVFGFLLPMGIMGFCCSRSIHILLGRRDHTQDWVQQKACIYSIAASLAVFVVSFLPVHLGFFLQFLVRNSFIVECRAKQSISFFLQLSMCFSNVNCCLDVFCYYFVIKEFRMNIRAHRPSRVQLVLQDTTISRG

[5] = 1 μM; remark: listed apart in the source
Na+ channel (site 2) = type: binding; conditions: 10 µM
[6] = test system: Ca2+ channel (L, diltiazem site); test: CEREP panel; type: binding; conditions: 10 µM
[7] = test system: AEA cellular uptake in HMC-1 cells; test: cells; type: cell-based, human; conditions: read-out: AEA reuptake IC50 (95% CI) HMC-1 cells; FAAH-deficient cells
hCB1R [8] = biological target: T8, hCB1R (Homo sapiens, UniProt P21554); test: cell-based; type: cell-based
T8 construct: host or cells: CHO

hCB1R [9] = biological target: T8, hCB1R; test: cell-based; type: cell-based; remark: listed apart in the source
hCB1R [10] = biological target: T8, hCB1R; test: biochemical; type: binding; conditions: CHO membranes; Leiden, HU210 and SR144528 from Roche
hCB1R [11] = biological target: T8, hCB1R; test: biochemical; type: biochemical
[12] = i.v., mice
mCB1R = biological target: T9, mCB1R (Mus musculus, UniProt P47746); test: biochemical; type: binding; conditions: mouse brain membranes
T9 construct: from tissue; host or cells: brain of male C57BL/6J mice

Molecule	% inhibition MT3 (ML2) (MT3 (ML2)) [%]	AEA reuptake Efficacy (% inhibition) U937 cells [1] [%]	IC50 [1] [µM]	CL microsomes human [2] [µL/min/mg protein]	IC50 (Rat recombinant TRPM8; vs icilin […]) [µM]	% inhibition N muscle-type (h) (N muscle-type (h)) [%]	% inhibition PCP (PCP) [%]	% inhibition norepinephrine transporter (h) [4] [%]	% inhibition PPARgamma (h) (PPARgamma (h)) [%]	TRPV1 Efficacy (% ionomycin 4μM) (Human recombinant TRPV1) [%]	IC50 (Human recombinant TRPV1) [µM]	GPR55 pEC50 (± SEM) (hGPR55; β-arrestin recruitment)	CL hepatocytes mouse [5] [µL/min/mio cells]	% inhibition Na+ channel (site 2) (Na+ channel (site 2)) [%]	% inhibition Ca2+ channel (L, diltiazem site) [6] [%]	IC50 [7] [µM]	Emax ± SEM pERK hCB1R (hCB1R [8])	Emax ± SEM β-AR recruitment hCB1R (hCB1R [9])	also measured
Cc1c(C(=O)c2cccc3ccccc23)c2cccc3c2n1[C@H](CN1CCOCC1)CO3 [WIN55212-2]	69	52	4.65	194	72.9 ± 4.5	7	-3	33	39	44.4	35.8 ± 2.2	< 5	568	68	55	> 5			IC50 (Rat recombinant TRPM8; vs icilin 0.1μM (second value in cell)): 19 ± 2.2 µM; logD [3]: 3.67±0.03; EC50 (Human recombinant TRPV1; read-out: TRPV1 Potency EC50): 19.2 µM
SR144528	-21		> 10			-3	-13	29	31	< 10				34	10	> 10	-21 ± 2	-82 ± 5	AEA reuptake % inhibition, effect at 10 µM, U937 cells ([1]; 10 µM (values marked *)): 30%
Cc1ccc2c(c1)Cc1c(C(=O)NN3CCCCC3)nn(-c3ccc(Cl)cc3Cl)c1-2 [Gp-1a]	33	64	1.26	13	> 50		-1	59	86	< 10	3 ± 0.1	< 5	78	40	34	> 5	2 ± 3	-83 ± 7	pKi ± SEM hCB1R (hCB1R [10]): 6.97 ± 0.35; pEC50 ± SEM GTPγS hCB1R (hCB1R [11]): < 5; AUCinf [12]: 825 ng·h/mL; AUCinf/dose [12]: 412 kg·ng·h/mL/mg; AUClast [12]: 658 ng·h/mL; CL [12]: 40 mL/min/kg; T1/2 [12]: 3.5 h; C0 ([12]; 1.0-2.0 mg/kg, extrapolated): 351 ng/mL; pEC50 ± SEM β-AR recruitment hCB1R (hCB1R [9]): < 5; pKi ± SEM mCB1R (mCB1R): 6.37 ± 0.08
Cc1c(C(=O)NN2CCCCC2)nn(-c2ccc(Cl)cc2Cl)c1-c1ccc(I)cc1 [AM251]						12			55										GPR55 pEC50 (± SEM) (hGPR55): 5.49±0.09; GPR55 Emax ± SEM (%) or % effect at 10 µM (hGPR55; β-arrestin recruitment): 82±9%
